Reference: patent US9308161B2, “Substance for restoring normal co-expression and interaction between the LOX and NRAGE proteins” (BASF Beauty Care Solutions France S.A.S., priority 2005, dated 2016)
Values joined by “and” are separate entries in the source; they are usually repeats but may differ in a detail not shown here. Equal values may be shown once.

Assays:
transglutaminase = assay: Transglutaminase immunolabelling intensity in reconstructed skin model (MIMESKIN); assay type: cell-based, human; settings: positive control, calcium chloride 1.5 mM
Procedure: The reconstructed skin model is in particular achieved according to the following protocol: • 0.5 to 1.10^6 fibroblasts of normal human skin are sown on a matrix substrate based on collagen/glycosaminoglycan/chitosan, and then grown in a nutritive medium, for example DMEM-Glutamax supplemented with 10% of calf serum; ascorbic acid, preferably at a final concentration of 1 mM; EGF (epidermal grow factor), preferably at a final concentration of 10 ng/ml; Normocin, preferably at a final concentration of 100 μg/ml, for 21 days. • 0.5 to 1.10^6 […], and then grown in a nutritive medium, for example DMEM-Glutamax/Ham F-12 (ratio 3:1 v/v) supplemented with calf serum, ascorbic acid, preferably at a final concentration of 1 mM; EGF (epidermal growth factor), preferably at a final concentration of 10 ng/ml; hydrocortisone, preferably at a final concentration of 0.4 μg/ml; umuline, preferably at a final concentration of 0.12 IU/ml; isuprel, preferably at a final concentration of […]; triiodothyronine, preferably at a final concentration of 2.10^−9M; adenine, preferably at a final concentration of 24.3 μg/ml; Normocin, preferably at a final concentration of 100 μg/ml. The culture was continued for 7 days in an immersed condition. The cultures were then placed at the air-liquid interface for 14 additional days in the same medium as the immersion culture, except for the calf serum, hydrocortisone, isuprel, triidothyronine and umuline.
The active ingredient (ephedra extract) is advantageously diluted in the culture media described above at 0.5 and 1% and used 3 days after the respective sowing of fibroblasts and keratinocytes (i.e. days 3 to 21 and days 24 to 42). […]
Viewing of immunolabellings is performed under photon microscopy (Axioskop2plus—Zeiss, Germany) and quantification of the transglutaminase immunolabellings was performed by image analysis (Lucia—Nilon, France) and the effects of the treatment with the active ingredient are evaluated (Holm-Sidak statistical test, p<0.01).

LOX = LOX messenger RNA by quantitative RT-PCR, keratinocytes in culture in the absence of calcium differentiation (Example 15); assay type: cell-based, human; settings: mRNA relative to actine vs untreated control (NT); 24 hours; no calcium differentiation; 0.1% to 1% (v/v)
Procedure: The actives were tested on normal human keratinocytes from young subjects, obtained by enzymatic extraction of human biopsies collected after surgical resection and cultivated as monolayers in a K-SFM (keratinocyte serum free medium with supplements) defined medium, supplemented with antibiotics at 37° C. under 5% CO2. The cells are sown at the second passage in 24-well plates, for example with an amount of 30 000 cells per cm^2 and grown until about 95% confluence. […] Active ingredients of different origins (vegetable, biotechnological origin or synthesized molecules for example) are tested from 0.1% volume/volume (v/v) to 1% (v/v). An active ingredient from vegetable origin is tested for example at 1% (v/v) and a synthesized molecule is tested for example at 0.1% (v/v) […] The obtained extracts are then filtered or distilled in order to recover the soluble fraction which is then filtered at 0.45 μm preferably. The biotechnological hydrolysates are obtained by fermentation of vegetable extracts in the presence of microorganisms, advantageously from the Lactobacillus or Saccharomyces family. These hydrolysates are then preferably filtered to 0.45 μm. The incubation is advantageously performed for 24 hours at 37° C. under 5% CO2, in a K-SFM medium without growth factors but with antibiotics. The negative controls are either the culture medium by itself, or the culture medium containing from 0.1% (v/v) to 1% (v/v) of the solvent used during the method for extracting the tested extracts. […] The untreated cells (NT control) are dry frozen at -80° C. after rinsing with pH 7.4 phosphate buffer. […] Modification of the expression of the genes is achieved by real time RT-PCR which measures the expression of each gene relative to actine (housekeeping gene) and expressed as a % of the untreated negative control (NT). […] According to the experimentation, the measuring threshold of C(T) (=cycle threshold) was set for T between 0.05 and 0.01 and then an arbitrary measuring unit is calculated for each gene according to the formula: […] […]

[1] = test system: differentiated human keratinocytes; assay: Apoptosis by TUNEL in monolayer cultures of differentiated human keratinocytes, LOX activity inhibited; assay type: cell-based
Procedure: The study was carried out on monolayer cultures of differentiated human keratinocytes at confluence. The effect of LOX on apoptosis was identified by inhibiting its activity through the addition of β-APN (0.02% w/v—(weight/volume)) under normal or proapoptotic conditions (thermal shock caused by exposure to a temperature of 45° C.±0.5° C. for 1 h 30 min).
Cell death by apoptosis is detected and quantified using the TUNEL (terminal deoxynucleotidyl transferase mediated dUTP nick end labeling) technique, which is based on labeling of the […] accompanying apoptosis.
The first step consists in labeling the DNA breaks with TdT (terminal deoxynucleotidyl transferase), which catalyzes the polymerization of the fluorescein-labeled nucleotides at the free 3′-OH end of the DNA. The second step consists in detecting the incorporated fluorescein with an alkaline phosphatase-conjugated anti-fluorescein antibody after incubation with the substrate for the latter.
The experiment is validated by means of a positive control obtained by fragmentation of the DNA with a DNase solution, and a negative control obtained by depositing phosphate buffer.

[Ca+2].[Cl-].[Cl-] [Calcium, calcium chloride]
INTENSITY Average (transglutaminase): 0.067
Variation vs NT (transglutaminase): 59%
INTENSITY of transglutaminase labelling (single values) (transglutaminase; day 28-42): 0.061 and 0.076 and 0.064

CC/C=C/CC(=O)OCC [Ethyl trans 3-hexanoate]
LOX modulation vs NT (LOX): 2.3

CCC(C)C(=O)OC (stereo not drawn) [Methyl 2 methyl butyrate]
LOX modulation vs NT (LOX): 2.5

OC[C@@H](O)[C@H](O)[C@@H](O)CO [Xylitol]
LOX modulation vs NT (LOX): 2.8

N#CCCN [β-APN, β-aminopropionitrile]
Without thermal shock (% of labeled cells) ([1]; TUNEL, β-APN 0.02% w/v, normal conditions): 56% of labeled cells
With thermal shock (% of labeled cells) ([1]; TUNEL, β-APN 0.02% w/v, thermal shock 45° C.±0.5° C. for 1 h 30 min): 81% of labeled cells
effect on apoptosis ([1]; inhibition of the enzymatic activity of LOX by β-APN): substantial increase in apoptosis
